From patent US20100022637A1, “IDENTIFICATION OF ANTI-CANCER COMPOUNDS AND COMPOUNDS FOR TREATING HUNTINGTON'S DISEASE AND METHODS OF TREATMENT THEREOF” (THE TRUSTEES OF COLUMBIA UNIVERSITY IN THE CITY OF NEW YORK, priority 2005, published 2010)

Legend:
[1] = Rescue and toxicity of Compound 164 and analogs (Table 4); details: for TC50: Table 4, toxicity
[2] = tested on: N548 mutant cells; test: cells; details: for Activity: scale not defined; for maximal fold induction: read-out: N548 Mut: Max, maximum rescue expressed as fold over DMSO treated N548 mutant cells; for selectivity profile of cell death rescue in panel of htt expressing cell lines: N63, N548, FL htt cell lines, in words
Experimental: Embryonic rat striatal neurons were conditionally immortalized by stably transfecting a temperature-sensitive SV40 large T-antigen (T-ag) to generate the ST14A cell line. ST14A cells proliferate at the permissive temperature (33° C.), but stop dividing at 39° C., as a result of T-ag degradation. […] As htt protein context modulates polyQ toxicity, testing these different length htt proteins could provide insight into the basis for context dependence.
ST14A Assay System: Calcein acetoxylmethyl ester (AM) (Molecular Probes, Eugene, Oreg.) is a non-fluorescent, membrane-permeable compound that is cleaved by intracellular esterases, which subsequently forms the anionic, fluorescent compound, calcein, that cannot permeate the cell membrane. […] A fluorescence viability assay, that is based on conversion of a non-fluorescent substrate (calcein AM) to a fluorescent product by nonspecific esterases in live cells, was employed to monitor cell death in wild type (wt) ST14A-Htt and mut ST14A-Htt cell lines. Cell death is indicated by a decrease in fluorescence. […] 3 μl of each compound was transferred from daughter plates to triplicate assay plates for a final assay concentration of 4 μg/ml in 0.1% DMSO (10 μM for NINDS compounds). Cells were incubated at 33° C. for 3 h to enhance attachment and then shifted to 39° C. (with 5% CO2). After 3 days (d), cells were washed 10 times with phosphate buffered saline (PBS) leaving 20 μl residual PBS per well, and 20 μl of 2 μg/ml calcein AM (Molecular probes) in PBS was added per well. […] The fluorescence intensity in each well was normalized to the median of each plate. The median normalized fluorescence of each triplicate assay wells was determined. A well with more than 50% increase in intensity above the median signal intensity was considered a “hit.”
Assay Development: An assay was developed for detecting mutant htt-induced cell death in ST14A cells in a 384-well plate format. A calcein AM-based method was used to detect cell viability, and optimized the cell number and time course for this method. […] A cell number titration was performed to determine the cell density at which calcein fluorescence was not saturated and the coefficient of variation (CV) was low (FIG. 14A-B). A low CV is critical for a high-throughput assay as it decreases noise and enhances sensitivity. […] Next, the kinetics of the fluorescence signal were determined.
Next, the serum concentrations that induce cell death in these cells were determined. Cells were seeded in decreasing serum (IFS) concentrations (5 to 0%), and cell viability was assayed after 3 d using the calcein AM assay (FIG. 14E).
A Z′ value of greater than 0 is required for a usable assay, with a maximum value of 1.0 for an ideal assay. For the assay, calcein fluorescence was used on the day of seeding to represent 100% rescue. The difference in calcein fluorescence signal on the day of seeding and after different number of days under serum deprivation was determined and used to calculate the Z′ factor. […] About 47,000 compounds were assayed in a 384-well plate format in triplicate to enhance the reliability of the primary screen.

[3] = Rattus norvegicus, read-out: EC50 based on activity in N548 mutant cells
[4] = read-out: EC50 based on activity in N548 mutant cells
[5] = nonselective hits (rescue also parental ST14A), 0.5% IFS, 39° C., 3 d

COc1ccc(C2c3cc(OC)c(OC)cc3CCN2C(=O)c2ccco2)cc1OC (centres unmarked) [Compound 164-11, Isoquinoline, 1-(3,4-dimethoxyphenyl)-2-(2-furanylcarbonyl)-1,2,3,4-tetrahydro-6,7-dimethoxy-(9CI)]
Max % Rescue ([1]; Table 4, cell model not stated): 7.95%

CCOC(=O)C(C)(C)Oc1ccc(Cl)cc1 [Clofibrate, reference compound]
EC50 ([2]; Rattus norvegicus, ST14A, 72 h): 1000 nM | Activity ([2]; nonselective hits): 2

CCC1CN2CCc3cc(OC)c(OC)cc3C2CC1CC1c2cc(OC)c(OC)cc2CCN1C(=O)c1ccco1 (centres unmarked) [revertin-25]
maximal fold induction ([2]; Rattus norvegicus, 72 h): 4 | EC50 [2, 3]: 3 µg/mL

CC1(C)C(C=C(Cl)Cl)C1C(=O)C1=C(O)CCCC1=O (centres unmarked) [revertin-6]
selectivity profile of cell death rescue in panel of htt expressing cell lines [2]: N548 mutant selective | maximal fold induction ([2]; Rattus norvegicus, 72 h): 8 | EC50 [2, 3]: 3 µg/mL

Oc1ccc2c(c1)CC1NCCc3cc(O)c(O)c-2c31 (centres unmarked) [revertin-27]
maximal fold induction ([2]; Rattus norvegicus, 72 h): 3 | EC50 [2, 3]: 4 µg/mL

COc1ccccc1C1(CCN(Cc2ccccc2)C(=O)c2ccco2)CCOC(C)(C)C1 (centres unmarked) [Compound 164-10, 2-Furancarboxamide, N-(phenylmethyl)-N-[2-[tetrahydro-4-(2-methoxyphenyl)-2,2-dimethyl-2H-pyran-4-yl]ethyl]-(9CI)]
EC50 [1]: 200 nM | TC50 [1]: 1700 nM | Max % Toxicity ([1]; Table 4, cell model not stated): 62.27%

COc1cccc(CN2CCN(C(=O)c3ccco3)CC2)c1 [Compound 164-18, 1-(2-furoyl)-4-(3-methoxybenzyl)piperazine]
Max % Toxicity ([1]; Table 4, cell model not stated): 12.00%

CC[C@@]1(C)CC(CCN(Cc2ccco2)C(C)=O)(c2ccccc2)CCO1 (some centres unmarked) [Compound 164-1]
EC50 [1]: 2000 nM | TC50 [1]: 8000 nM

O=c1[nH]c2c(c(=O)[nH]1)C(c1cccc([N+](=O)[O-])c1)C=C(c1ccccc1)O2 (centres unmarked) [revertin-15]
maximal fold induction ([2]; Rattus norvegicus, 72 h): 3 | EC50 [2, 3]: 1 µg/mL

Cc1ccc(-c2nc(NS(=O)(=O)c3ccc(Cl)cc3)sc2C)cc1 [revertin-21]
maximal fold induction ([2]; Rattus norvegicus, 72 h): 3 | EC50 [2, 3]: 4 µg/mL

CC(=O)N(c1ccc(Br)cc1)C1C(=O)c2ccccc2C(=O)C1N(C)C (centres unmarked) [revertin-24]
maximal fold induction ([2]; Rattus norvegicus, 72 h): 25 | EC50 [2, 3]: 2 µg/mL

C[C@H](O)[C@H](O)[C@H]1CNc2nc(N)[nH]c(=O)c2N1 [Tetrahydrobiopterin, reference compound]
EC50 ([2]; Rattus norvegicus, ST14A, 72 h): 500 nM | Activity ([2]; nonselective hits): 2.5

CCC(=O)N(CCC(Cc1ccccc1)C1CCOC(C)(C)C1)Cc1ccco1 (centres unmarked) [Compound 164-3]
EC50 [1]: 200 nM | TC50 [1]: 8000 nM | Max % Toxicity ([1]; Table 4, cell model not stated): 56.80%

CC(C)CC(NC(=O)OCc1ccccc1)C(=O)Oc1ccc2c(=O)c(-c3ccc([N+](=O)O)cc3)coc2c1 (centres unmarked) [revertin-17]
maximal fold induction ([2]; Rattus norvegicus, 72 h): 1.5 | EC50 [2, 3]: 4 µg/mL

COc1ccccc1C(CCN(C(C)=O)C(C)c1ccccc1)C1CCC(C)(C)OC1 (centres unmarked) [revertin-3]
maximal fold induction ([2]; Rattus norvegicus, 72 h): 4 | EC50 [2, 3]: 2 µg/mL

CC[C@]1(O)C[C@H]2CN(CCc3c([nH]c4ccccc34)[C@@](C(=O)OC)(c3cc4c(cc3OC)N(C=O)[C@H]3[C@@](O)(C(=O)OC)[C@H](OC(C)=O)[C@]5(CC)C=CCN6CC[C@]43[C@@H]65)C2)C1 [Vincristine, reference compound]
N548 Mut: Max, maximum rescue expressed as fold over DMSO treated N548 mutant cells ([2]; 0.5% IFS, 39° C., 3 d): 2.5 fold | EC50 [2, 4]: 40 nM

O=C(O)c1cc([N+](=O)[O-])ccc1NCCCc1ccccc1 [Compound 2-NPPB, reference compound]
EC50 [2, 5]: 10000 nM | Activity ([2]; nonselective hits): 1.5 | CC50 ([2]; read-out: TC50, nonselective hits, maximum concentration tested 80 μM): 40000 nM

Rotenone [reference compound]
N548 Mut: Max, maximum rescue expressed as fold over DMSO treated N548 mutant cells ([2]; 0.5% IFS, 39° C., 3 d): 2.5 fold | EC50 [2, 4]: 5000 nM

CCCc1cc(OC(=O)C(CC)c2ccccc2)n(-c2cccc(F)c2)n1 (centres unmarked) [revertin-1b]
selectivity profile of cell death rescue in panel of htt expressing cell lines [2]: selectively rescued cell death in all mutant htt-expressing cell lines | maximal fold induction ([2]; Rattus norvegicus, 72 h): 25 | EC50 [2, 3]: 4 µg/mL

Antimycin A [reference compound]
N548 Mut: Max, maximum rescue expressed as fold over DMSO treated N548 mutant cells ([2]; 0.5% IFS, 39° C., 3 d): 3 fold | EC50 [2, 4]: 5000 nM

Nonactin [reference compound]
N548 Mut: Max, maximum rescue expressed as fold over DMSO treated N548 mutant cells ([2]; 0.5% IFS, 39° C., 3 d): 2.5 fold | EC50 [2, 4]: 600 nM

CCOC(=O)c1cccc(NS(O)(O)c2ccc(OC)cc2)c1 [revertin-14]
selectivity profile of cell death rescue in panel of htt expressing cell lines [2]: N548 and FL-mutant selective

CC(C)C1=CCC2C(=C1)CCC1C(C(=O)O)CCCC21C (centres unmarked) [revertin-30]
maximal fold induction ([2]; Rattus norvegicus, 72 h): 4 | EC50 [2, 3]: 2 µg/mL

CC1OC(=O)C(C(C)C)NC(=O)C(C(C)C)OC(=O)C(C(C)C)NC(=O)C(C)OC(=O)C(C(C)C)NC(=O)C(C(C)C)OC(=O)C(C(C)C)NC(=O)C(C)OC(O)C(C(C)C)NC(=O)C(C(C)C)OC(=O)C(C(C)C)NC1=O (centres unmarked) [Valinomycin A, reference compound]
maximal fold induction ([2]; Rattus norvegicus, 72 h): 2.5 | EC50 [2, 3]: 150 nM

O=[N+]([O-])c1cc(CN2CCN(CCO)CC2)ccc1Cl [revertin-13]
maximal fold induction ([2]; Rattus norvegicus, 72 h): 1.5 | EC50 [2, 3]: 5 µg/mL

COc1ccc(C(CCN(CC2CCOC(C)(C)C2)C(C)=O)c2ccccc2)cc1 (centres unmarked) [revertin-18]
maximal fold induction ([2]; Rattus norvegicus, 72 h): 1.5 | EC50 [2, 3]: 4 µg/mL

CC1=NN(C(N)=S)C(=O)C1NNc1ccccc1C(F)(F)F (centres unmarked) [revertin-29]
maximal fold induction ([2]; Rattus norvegicus, 72 h): 3 | EC50 [2, 3]: 2 µg/mL

CC12CC3CC(C)(C1)CC(NC=O)(C3)C2 [revertin-26]
maximal fold induction ([2]; Rattus norvegicus, 72 h): 1.5 | EC50 [2, 3]: 5 µg/mL

CCCN1C(=O)C(=O)c2cc(C)ccc21 [revertin-16]
maximal fold induction ([2]; Rattus norvegicus, 72 h): 2 | EC50 [2, 3]: 1 µg/mL

CCCOc1ccccc1-c1nc2nn[nH]c2c(=O)[nH]1 [Zaprinast, reference compound]
EC50 ([2]; Rattus norvegicus, ST14A, 72 h): 5000 nM | Activity ([2]; nonselective hits): 1.5

CCCCCCN(C(=O)CCCC)C(C)c1nc2ccccc2c(=O)n1-c1ccccc1OC (centres unmarked) [revertin-10]
selectivity profile of cell death rescue in panel of htt expressing cell lines [2]: N63 and N548 mutant selective | maximal fold induction ([2]; Rattus norvegicus, 72 h): 1.5 | EC50 [2, 3]: 4 µg/mL

CC1=C(/C=C/C(C)=C/C=C/C(C)=C/C(=O)O)C(C)(C)CCC1 [Tretinoin, reference compound]
EC50 ([2]; Rattus norvegicus, ST14A, 72 h): 600 nM | Activity ([2]; nonselective hits): 2.5

COc1cc([C@@H]2c3cc4c(cc3[C@H](O)[C@H]3COC(=O)[C@H]23)OCO4)cc(OC)c1OC [Podophyllotoxin, reference compound]
maximal fold induction ([2]; Rattus norvegicus, 72 h): 2.5 | EC50 [2, 3]: 25 nM

COc1ccc(CN(CCC2(c3ccccc3)CCOC(C)(C)C2)C(=O)c2ccco2)cc1OC (centres unmarked) [revertin-20]
maximal fold induction ([2]; Rattus norvegicus, 72 h): 2 | EC50 [2, 3]: 8 µg/mL

COc1cc(CC(=O)NC(C)C2C(=O)CC3C2C3(C)C)cc(OC)c1OC (centres unmarked) [revertin-4]
maximal fold induction ([2]; Rattus norvegicus, 72 h): 1.5 | EC50 [2, 3]: 4 µg/mL

O=c1cccc2n1CC1CC2CN(C2=NC=NC3c4cc(Cl)ccc4NC23)C1 (centres unmarked) [revertin-12]
maximal fold induction ([2]; Rattus norvegicus, 72 h): 1.5 | EC50 [2, 3]: 3 µg/mL

CCCC1O[C@@H]2C[C@H]3[C@@H]4CCC5=CC(=O)C=C[C@]5(C)[C@H]4[C@@H](O)C[C@]3(C)[C@]2(C(=O)CO)O1 (some centres unmarked) [Budesonide, reference compound]
EC50 ([2]; Rattus norvegicus, ST14A, 72 h): 500 nM | Activity ([2]; nonselective hits): 2

CCCCC[C@H](O)/C=C/[C@H]1[C@H](O)CC(=O)[C@@H]1C/C=C\CCCC(=O)O [Prostaglandin E2, reference compound]
EC50 [2, 5]: 100 nM | Activity ([2]; nonselective hits): 2

O=C(NNC(C(=O)Cc1cccs1)C(F)(F)F)c1cccc(Br)c1 (centres unmarked) [revertin-31]
maximal fold induction ([2]; Rattus norvegicus, 72 h): 4 | EC50 [2, 3]: 2 µg/mL

COc1cc2c3c(c1)C(C)CC(C)(C)N3C(=O)C2=O (centres unmarked) [revertin-19]
maximal fold induction ([2]; Rattus norvegicus, 72 h): 2 | EC50 [2, 3]: 4 µg/mL
